Source: ChEMBL document CHEMBL5053527, “Design, synthesis, and pharmacological profiling of cannabinoid 1 receptor allosteric modulators: Preclinical efficacy of C2-group GAT211 congeners for reducing intraocular pressure” (Bioorg Med Chem, 2021)
pEC50, pKi: −log10 of the molar value. Converted amounts (≈) assume the structure as drawn. The source made the active and inactive calls. The calls are words filed in the database; no cut-off is given here.

Legend:
Cannabinoid receptor 1 [1] = target: T1, Cannabinoid receptor 1 (Homo sapiens, UniProt P21554); test: Positive allosteric modulation of human CB1 receptor expressed in CHO-K1 cells assessed as inhibition of forskolin-induced cAMP production incubated for 30 mins in presence of forskolin by HitHunter chemiluminescence based assay; type: functional, cell-based
Cannabinoid receptor 1 [2] = target: T1, Cannabinoid receptor 1; test: Positive allosteric modulation of human CB1 receptor expressed in CHO-K1 cells assessed as inhibition of forskolin-induced cAMP production by measuring maximum efficacy incubated for 30 mins in presence of forskolin by HitHunter chemiluminescence based assay relative to control; type: functional, cell-based
Cannabinoid receptor 1 [3] = target: T1, Cannabinoid receptor 1; test: Positive allosteric modulation of human CB1 receptor expressed in CHO-K1 cells assessed as beta-arrestin 2 recruitment incubated for 90 mins by PathHunter chemiluminescence based assay; type: cell-based
Cannabinoid receptor 1 [4] = target: T1, Cannabinoid receptor 1; test: Positive allosteric modulation of human CB1 receptor expressed in CHO-K1 cells assessed as beta-arrestin 2 […] by measuring maximum efficacy incubated for 90 mins by PathHunter chemiluminescence based assay relative to control; type: cell-based
in vitro [5] = details: human, liver microsomes
in vitro [6] = details: human, liver microsomes; remark: listed apart in the source
in vitro [7] = details: rat, liver microsomes
in vitro [8] = details: rat, liver microsomes; remark: listed apart in the source
physchem = details: PBS buffer, pH 7.4
Cannabinoid receptor 1 [9] = target: T1, Cannabinoid receptor 1; test: Displacement of [3H]CP55940 from human CB1 receptor expressed in CHO-K1 cell membrane assessed as maximum efficacy incubated for 60 mins by liquid scintillation spectrometry analysis relative to control; type: cell membranes
Cannabinoid receptor 1 [10] = target: T1, Cannabinoid receptor 1; test: Agonist activity at human CB1 receptor expressed in CHO cell membranes assessed as increase in [35S]GTPgammaS binding by measuring maximum efficacy incubated for 30 mins by liquid scintillation spectrometry analysis relative to control; type: functional; details: CHO-K1, Cell membrane, filed as agonist
Cannabinoid receptor 1 [11] = target: T1, Cannabinoid receptor 1; test: Potency index, ratio of GAT211 EC50 to test compound EC50 for positive allosteric modulation of human CB1 receptor expressed in CHO-K1 cells assessed as inhibition of forskolin-induced cAMP production incubated for 30 mins in presence of CP55940 by HitHunter chemiluminescence based assay; type: functional, cell-based
Cannabinoid receptor 1 [12] = target: T1, Cannabinoid receptor 1; test: Displacement of [3H]CP55940 from human CB1 receptor expressed in CHO-K1 cell membranes incubated for 60 mins by liquid scintillation spectrometry analysis; parameters: species or system Cell membrane
Cannabinoid receptor 1 [13] = target: T1, Cannabinoid receptor 1; test: Agonist activity at human CB1 receptor expressed in CHO cell membranes assessed as increase in [35S]GTPgammaS binding incubated for 30 mins by liquid scintillation spectrometry analysis; type: functional, CHO-K1, Cell membrane
Cannabinoid receptor 1 [14] = target: T1, Cannabinoid receptor 1; test: Agonist activity at human CB1 receptor expressed in CHO cell membranes assessed as increase in [35S]GTPgammaS binding by measuring maximum efficacy incubated for 30 mins in presence of CP55940 by liquid scintillation spectrometry analysis relative to control; type: functional; details: CHO-K1, Cell membrane, filed as agonist
Cannabinoid receptor 1 [15] = target: Cannabinoid receptor 1 (Mus musculus, UniProt P47746); test: Positive allosteric modulation of CB1 receptor in MF1 mouse vas deferens assessed as inhibition of AEA-induced electrically evoked vas deferens contraction incubated for 13 mins followed by electrical stimulation for 2 mins (Rvb= 460 nM); type: tissue-based
[16] = target: Cannabinoid receptor 1 (Mus musculus) (UniProt P47746); test: Positive allosteric modulation of CB1 receptor in MF1 mouse vas deferens assessed as inhibition of AEA-induced electrically evoked vas deferens contraction by measuring maximum efficacy incubated for 13 mins followed by electrical stimulation for 2 mins (Rvb= […]+/- […]% ); type: tissue-based; details: filed as positive allosteric modulator
[17] = target: Cannabinoid receptor 1 (Mus musculus) (UniProt P47746); test: Agonist activity at CB1 receptor in C57BL/6 mouse hippocampal neurons assessed as inhibition of excitatory postsynaptic current at 1 uM at -70 mV holding membrane potential by whole cell patch clamp assay; type: functional, tissue-based; details: Neuron, filed as agonist
[18] = target: Cannabinoid receptor 1 (Mus musculus) (UniProt P47746); test: Positive allosteric modulation of CB1 receptor in C57BL/6 mouse hippocampal neurons assessed as decrease in inhibition of DSE recovery rate at 1 uM and holding potential at 0 mV for 10 secs followed by DSE stimulation; type: tissue-based; details: Neuron, filed as positive allosteric modulator, time 10.0 sec
Mus musculus = test: Antiglaucoma activity in normotensive C57BL/6 mouse model assessed as reduction in intraocular pressure at 5 mM administered topically measured after 1 hr; type: functional
[19] = filed as positive allosteric modulator

Chain of Cannabinoid receptor 1 (Mus musculus) (P47746 whole entry): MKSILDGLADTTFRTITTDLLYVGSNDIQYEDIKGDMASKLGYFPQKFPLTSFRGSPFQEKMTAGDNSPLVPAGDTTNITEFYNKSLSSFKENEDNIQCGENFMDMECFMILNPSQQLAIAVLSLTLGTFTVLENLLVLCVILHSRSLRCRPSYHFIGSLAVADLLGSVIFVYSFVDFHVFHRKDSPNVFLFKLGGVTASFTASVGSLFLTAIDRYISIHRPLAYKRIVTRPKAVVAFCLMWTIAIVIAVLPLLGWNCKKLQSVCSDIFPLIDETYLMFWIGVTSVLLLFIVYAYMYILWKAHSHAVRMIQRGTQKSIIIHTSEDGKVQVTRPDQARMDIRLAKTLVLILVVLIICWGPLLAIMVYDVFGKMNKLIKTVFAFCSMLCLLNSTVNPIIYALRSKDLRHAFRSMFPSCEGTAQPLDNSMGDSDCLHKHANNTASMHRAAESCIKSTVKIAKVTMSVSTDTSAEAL
T1 sequence (P21554 whole entry): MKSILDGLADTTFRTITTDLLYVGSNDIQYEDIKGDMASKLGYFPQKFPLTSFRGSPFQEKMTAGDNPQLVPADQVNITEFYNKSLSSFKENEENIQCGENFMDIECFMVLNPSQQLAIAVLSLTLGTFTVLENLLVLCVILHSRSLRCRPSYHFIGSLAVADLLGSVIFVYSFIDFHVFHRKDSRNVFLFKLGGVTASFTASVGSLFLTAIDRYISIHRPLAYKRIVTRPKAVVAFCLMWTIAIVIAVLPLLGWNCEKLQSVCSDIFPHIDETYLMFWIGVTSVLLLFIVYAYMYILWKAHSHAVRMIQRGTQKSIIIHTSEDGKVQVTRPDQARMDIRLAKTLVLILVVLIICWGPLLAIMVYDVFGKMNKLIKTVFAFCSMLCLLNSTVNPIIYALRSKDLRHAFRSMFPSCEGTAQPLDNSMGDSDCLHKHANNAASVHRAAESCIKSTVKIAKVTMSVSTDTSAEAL
Chain of Cannabinoid receptor 1 (Mus musculus, UniProt P47746) (P47746 whole entry): as the sequence (P47746 whole entry) above

| Compound | pEC50 (Cannabinoid receptor 1 [1]) | Emax (Cannabinoid receptor 1 [2]; [19]) [%] | pEC50 (Cannabinoid receptor 1 [3]) | Emax (Cannabinoid receptor 1 [4]) [%] | further results |
| --- | --- | --- | --- | --- | --- |
| O=[N+]([O-])CC(c1ccccc1)c1c(-c2cccs2)[nH]c2ccccc12 (stereo unspecified) | 6.77 | 85 | 6.96 |  | Emax (Cannabinoid receptor 1 [4]; [19]): 57%; microsomal CLint at 0.25 h, 1 µM (in vitro [5]): 115 µL/min/mg; half-life at 0.25 h, 1 µM (in vitro [6]): 20 min; microsomal CLint at 0.25 h, 1 µM (in vitro [7]): 595 µL/min/mg; half-life at 0.25 h, 1 µM (in vitro [8]): 3.88 min; solubility kinetic at 2 h, 200 µM (physchem): 1.56 µM (≈ 0.544 µg/mL) |
| O=[N+]([O-])CC(c1ccccc1)c1c(-c2cc3ccccc3s2)[nH]c2ccccc12 (stereo unspecified) | 6.82 | 130 | < 5.00 | 13 |  |
| CC(C)(C)OC(=O)n1c(-c2[nH]c3ccccc3c2C(C[N+](=O)[O-])c2ccccc2)cc2ccccc21 (stereo unspecified) | < 5.00 |  | < 5.00 | 0 | Emax (Cannabinoid receptor 1 [2]): 0% |
| O=[N+]([O-])CC(c1ccccc1)c1c(-c2ccn[nH]2)[nH]c2ccccc12 (stereo in doubt; 15g) [listing 1 of 2 here] | < 5.00 |  | < 5.00 |  |  |
| O=[N+]([O-])CC(c1ccccc1)c1c(-c2ccc[nH]2)[nH]c2ccccc12 (stereo unspecified) | 6.66 | 110 | < 5.00 | 25 |  |
| O=[N+]([O-])CC(c1ccccc1)c1c(-c2cc3ccccc3o2)[nH]c2ccccc12 (stereo unspecified) | 6.26 | 96 | < 5.00 | 9.5 |  |
| CC(C)[Si](C(C)C)(C(C)C)n1ccc(-c2[nH]c3ccccc3c2C(C[N+](=O)[O-])c2ccccc2)c1 (stereo unspecified) | 6.01 | 120 | < 5.00 | -4.5 |  |
| O=[N+]([O-])CC(c1ccccc1)c1c(-c2ccoc2)[nH]c2ccccc12 (stereo unspecified) | 7.00 | 120 | < 6.00 | 18 |  |
| O=[N+]([O-])CC(c1ccccc1)c1c(-c2cc3ccccc3[nH]2)[nH]c2ccccc12 (stereo unspecified) | < 5.00 | 110 | < 5.00 | 3.3 |  |
| O=[N+]([O-])CC(c1ccccc1)c1c(-c2cc[nH]c2)[nH]c2ccccc12 (stereo unspecified) | < 5.00 | 52 | < 5.00 | -1.5 |  |
| O=[N+]([O-])CC(c1ccccc1)c1c(-c2nccs2)[nH]c2ccccc12 (stereo unspecified) | 6.10 | 72 | < 5.00 | 2.8 |  |
| O=[N+]([O-])CC(c1ccccc1)c1c(-c2ccccc2)[nH]c2ccccc12 (stereo unspecified) |  |  |  |  | Emax (Cannabinoid receptor 1 [9]; [19]): 57% |
| O=[N+]([O-])CC(c1ccccc1)c1c(-c2ccco2)[nH]c2ccccc12 (stereo unspecified) | 6.89 | 140 | 5.68 | 11 |  |
| O=[N+]([O-])CC(c1ccccc1)c1c(-c2cscn2)[nH]c2ccccc12 (stereo unspecified) | 5.92 |  | < 5.00 |  | Emax (Cannabinoid receptor 1 [2]): 38%; Emax (Cannabinoid receptor 1 [4]; [19]): 45% |
| O=[N+]([O-])CC(c1ccccc1)c1c(-c2ccn[nH]2)[nH]c2ccccc12 (stereo in doubt; 15g) [listing 2 of 2 here] |  |  |  | 0 | Emax (Cannabinoid receptor 1 [2]): 0% |
| O=[N+]([O-])CC(c1ccccc1)c1c(-c2c[nH]c3ccccc23)[nH]c2ccccc12 (stereo unspecified) | < 5.00 |  | < 5.00 | 1.3 | Emax (Cannabinoid receptor 1 [2]): -71% |
| O=[N+]([O-])CC(c1ccccc1)c1c(-c2cncs2)[nH]c2ccccc12 (stereo unspecified) | 5.82 | 100 | < 5.00 | 5.1 |  |
| O=[N+]([O-])CC(c1ccccc1)c1c(-c2cn[nH]c2)[nH]c2ccccc12 (stereo unspecified) | < 5.00 | 110 | < 5.00 | 3.5 |  |
| O=[N+]([O-])CC(c1ccccc1)c1c(-c2ccn[nH]2)[nH]c2ccccc12 (stereo in doubt; 15h) [listing 1 of 2 here] |  | 120 |  | 0.76 |  |
| O=[N+]([O-])CC(c1ccccc1)c1c(-c2ccn[nH]2)[nH]c2ccccc12 (stereo in doubt; 15h) [listing 2 of 2 here] |  |  |  |  | pEC50 (Cannabinoid receptor 1 [1]; cho-k1): < 5.00; pEC50 (Cannabinoid receptor 1 [3]; cho-k1): < 5.00 |
| CCCCCCC(C)(C)c1ccc([C@@H]2C[C@H](O)CC[C@H]2CCCO)c(O)c1 |  |  |  |  | Emax (Cannabinoid receptor 1 [9]): -100%; Emax (Cannabinoid receptor 1 [10]): 42% |
| O=[N+]([O-])CC(c1ccccc1)c1c(-c2ccsc2)[nH]c2ccccc12 (stereo unspecified) | 7.06 | 98 | 6.49 |  | Emax (Cannabinoid receptor 1 [4]; [19]): 46%; Ratio EC50 (Cannabinoid receptor 1 [11]): 3; pKi (Cannabinoid receptor 1 [12]): 7.37; Emax (Cannabinoid receptor 1 [9]; [19]): 100%; pEC50 (Cannabinoid receptor 1 [13]): 6.89; Emax (Cannabinoid receptor 1 [10]): 49%; Emax (Cannabinoid receptor 1 [14]): 46%; pEC50 (Cannabinoid receptor 1 [15]): 7.52; Emax [16]: 62%; inhibition [17]: Active; Activity [18]: Active; Activity (Mus musculus): 3.2 mmHg; microsomal CLint at 0.25 h, 1 µM (in vitro [5]): 111 µL/min/mg; half-life at 0.25 h, 1 µM (in vitro [6]): 20.8 min; microsomal CLint at 0.25 h, 1 µM (in vitro [7]): 489 µL/min/mg; half-life at 0.25 h, 1 µM (in vitro [8]): 4.72 min; solubility kinetic at 2 h, 200 µM (physchem): 1.56 µM (≈ 0.544 µg/mL) |
